Reference: ChEMBL document CHEMBL1151347, “Lignans From Justicia flava” (J Nat Prod, 1980)
Active and inactive are the calls of the source. No cut-off for these calls is given here.

Columns and labels:
[1] = species: Mus musculus; test: Effect on central nervous system in mouse assessed as decrease in motor activity; type: functional, organism-based
[2] = species: Mus musculus; test: Effect on central nervous system in mouse assessed as ataxia; type: functional, organism-based

| Structure (SMILES) | Activity [1] | Activity [2] |
| --- | --- | --- |
| COc1cc([C@H]2c3cc(O)c(OC)cc3C[C@@H](CO)[C@@H]2CO)ccc1O | inactive | inactive |
| COc1cc(OC)c2c(-c3ccc4c(c3)OCO4)c3c(c(OC)c2c1O)COC3=O | inactive | inactive |
| O=C1OCc2c1cc1ccc3c(c1c2-c1ccc2c(c1)OCO2)OCO3 | inactive | inactive |
